According to US11324746B2, “Use of anagrelide for treating cancer” (Arovella Therapeutics Limited, priority 2014, dated 2022):
In brackets after ≈: the same amount, converted by molar mass. Several values for one entry are separate records, joined by “and”; a condition that tells them apart may be missing. Identical values can stand only once. Like-named read-outs stand apart in the source and are kept apart here.

Legend:
[1] = cited from earlier work; for peak plasma levels: after a typical 1 mg clinical dose
PDE III = conditions: cited from earlier work; for IC50 inhibition of PDE III / IC50: in vitro; for IC50: read-out: IC50 inhibition of PDE III
VEGF = conditions: ET patients; HU 1.25 g/day, IFN-α 1.5×10^6 units/day, anagrelide 1.5 mg/day; cited from earlier work
PF4 = conditions: ET patients; HU 1.25 g/day, IFN-α 1.5×10^6 units/day, anagrelide 1.5 mg/day; cited from earlier work
[2] = test system: various cancer cell lines; conditions: in vitro; WO2014/183673; read-out: IC50 apoptosis in cancer cell lines; cited from earlier work
[3] = cited from earlier work
[4] = Aqueous solubility of anagrelide; format: physicochemical
COV362 cells = assay: Transmigration assay of COV362 cells towards MK cultures (modified Boyden chamber); format: cell-based, human
Experimental: Transmigration assay—Transmigration of human ovarian cancer cells, COV362 cells (COVs), was examined in a well established model of cancer cell migration (Hart et al 2005) and Kramer et al 2013) which employed the modified Boyden chamber described above but using inserts with a larger 8μm pore PET membrane. […] In this case pre-expanded haematopoietic cells were grown for 7 days in MK medium in the wells of the companion plate prior to placement of the inserts. Inserts were then positioned inside these MK-containing wells or in parallel wells filled with and equivalent volume of MK medium alone. A suspension of 0.35 mL COVs cells made in plasma-free MK medium at a density of 2.86×10^5cells/ml was then loaded onto the inserts and allowed to trans-migrate through the PET membrane for up to 24 h at 37° C. in a tissue culture incubator. At various time points the transmigration assay was terminated by removing the insert from the well of the companion plate and aspirating its contents. After washing the inserts with phosphate-buffered saline (PBS) non-migrating cells attached to the upper side of the PET membrane were scraped off with cotton swabs soaked in PBS. […] Bright field digital photomicrographs were taken in five random fields at 100× magnification and the average number of cells per field was determined by manual counting.

[5] = up to concentration of 1 μM; cited from earlier work
[6] = cited from earlier work; remark: listed apart in the source
cancer cells = conditions: mice; cited from earlier work
[7] = cited from earlier work; remark: listed apart in the source
megakaryocytes = conditions: cited from earlier work
[8] = test system: megakaryocytes (MKs) from human umbilical cord blood-derived CD34+ haematopoietic cells; assay: Co-culture of COV362 cells and developing megakaryocytes (MK expansion, CD61 flow cytometry); format: cell-based; conditions: anagrelide 1 μM
Experimental: Cells and drug treatment—Megakaryocytes (MKs) were generated ex-vivo essentially as previously described (Ahluwalia M et al 2010). In brief, to promote terminal megakaryocytic differentiation pre-expanded human umbilical cord blood-derived CD34^+ haematopoietic cells were cultured for 7 days in Stemspan™ SFEM II medium (Stem Cell Technologies) supplemented with 1% human umbilical cord blood plasma and 40 ng/ml thrombopoietin (TPO) unless otherwise indicated (MK medium). […]
The human ovarian cancer cell line COV362 was grown in Iscove's modified Dulbecco's medium (IMDM) supplemented with 2 mM glutamine and 10% foetal bovine serum (FBS). Cell cultures were maintained at 37° C. in a humidified incubator under 5% CO2/95% air.
Co-culture experiments—Co-culture of COV362 cells (COVs) and developing MKs was carried out in a modified Boyden Chamber (BD Falcon, BD Biosciences, Oxford, UK) consisting of a cup-shaped cell culture insert resting inside the well of a 24-well companion plate, with the bottom of the insert made of a permeable microporous polyethylene terephthalate (PET) membrane having a pore size of 0.4 μm.
In experiments examining the effects of COVs on MK development, COVs were seeded in the companion plate at various cells densities and grown for 4 days prior to mounting the inserts. Then, the medium in the companion plate was removed and replaced with fresh MK medium. Immediately thereafter the pre-expanded haematopoietic cells were seeded in the insert. After seven days of co-culture the cells growing in the inserts were harvested for analysis of MK development.
Analysis of megakaryocyte development—Cell density was determined using a Casy TT Cell counter (Innovatis, Germany) set with a lower cut-off limit of ˜7.5 μm. MK-specific antigen expression was monitored by flow cytometry using a fluorescein isothiocyanate-conjugated anti-CD61 antibody (clone Y2/51, Dako, Ely, UK) as previously described (Wang G et al 2005). The number of MKs was calculated by multiplying the total number of cells in the culture by the fraction of CD61 positive cells.

[9] = cited from earlier work; remark: listed apart in the source
[10] = human, in vivo; cited from earlier work
ovarian cancer = conditions: mouse models of ovarian cancer; cited from earlier work

Q: For `O=C1NC2=Nc3ccc(Cl)c(Cl)c3CN2C1O` (stereo not drawn) [3-hydroxy anagrelide], which peak plasma levels ([1]; listed as metabolite) is on record?
A: 29 nM and ~8 ng/mL

Q: What about the “plasma concentrations of metabolite relative to parent drug” value ([1]; clinical practice, Martinez-Selles et al, 2013) of the same compound?
A: 2-3 fold

Q: And the “PDEIII inhibitory potency relative to anagrelide” value (PDE III; Wang et al, 2005)?
A: ~40 fold

Q: What about the “cardiostimulant potency relative to the parent drug” value (PDE III) of the same compound?
A: 40 fold

Q: What about the “IC50 inhibition of PDE III” value (PDE III) of the same compound?
A: 0.2 ng/mL

Q: What about the IC50 (PDE III) of the same compound?
A: 0.7 nM

Q: Which results are given for `NC(=O)NO` [HU, hydroxyurea]?
A: VEGF levels after treatment (VEGF): Neither HU nor IFα brought PF4 and VEGF down; PF4 levels after treatment (PF4): Neither HU nor IFα brought PF4 and VEGF down

Q: Which IC50 [2] does the source give for `O=C1CN2Cc3c(ccc(Cl)c3Cl)N=C2N1` [anagrelide] here?
A: 100 nM

Q: What about the “VEGF levels after treatment” value (VEGF) of the same compound?
A: reduced the PF4 and VEGF levels to normal

Q: What about the “PF4 levels after treatment” value (PF4) of the same compound?
A: reduced the PF4 and VEGF levels to normal

Q: And the aqueous solubility ([3]; between pH 4-8)?
A: ~1.0 µg/mL (≈ 3.9 µM)

Q: And the aqueous solubility ([3]; pH1)?
A: 236 µg/mL (≈ 922 µM)

Q: What about the water solubility ([3]; pH7) of the same compound?
A: ~1.0 µg/mL (≈ 3.9 µM)

Q: What about the water solubility ([3]; pH of ~3) of the same compound?
A: 250 µg/mL (≈ 976 µM)

Q: What about the “FDA Biopharmaceutics Classification System class” value [4] of the same compound?
A: low solubility/high permeability

Q: What about the “attractant properties for COVs of MK cultures grown with drug” value (COV362 cells; anagrelide 1 μM, overnight incubation (FIG. 3)) of the same compound?
A: no attractant properties

Q: And the “attractant properties for COVs of MKs grown with drug” value (COV362 cells; clinically relevant concentrations, 16 h (FIG. 4))?
A: loss of attractant properties

Q: And the apoptopic effects [5]?
A: no apoptopic effects

Q: And the oral bioavailability [6]?
A: less than 50%

Q: What about the “circulation time of cancer cells” value (cancer cells) of the same compound?
A: increase in circulation time of cancer cells

Q: And the “patients discontinuing drug treatment due to cardiovascular side-effects” value ([7]; Birgegard et al, 2004)?
A: ~25%

Q: What about the “patients with idiopathic cardiomyopathy” value ([7]; of 434 patients with essential thrombocythaemia and polycythemia vera, Jurgens et al 2004) of the same compound?
A: 11

Q: And the “in vitro anti-megakaryocytic IC50” value (megakaryocytes)?
A: 7 ng/mL

Q: What about the IC50 (megakaryocytes; read-out: in vitro anti-megakaryocytic IC50) of the same compound?
A: 26 nM

Q: What about the inhibition at 1 µM ([8]; Homo sapiens, 168 h, absence of COVs, 7 days, read-out: inhibition of thrombopoietin driven MK expansion) of the same compound?
A: ~50%

Q: What about the “stimulatory effects of COVs on MK expansion” value ([8]; COVs seeded at 1000cells/mL) of the same compound?
A: completely abolished

Q: What about the “expected increase in MK expansion with COVs” value ([8]; COVs seeded at 3000cells/mL) of the same compound?
A: more than halved

Q: And the peak plasma levels [1]?
A: 16 nM and ~4 ng/mL

Q: And the “IC50 inhibition of PDE III” value (PDE III)?
A: 8.2 ng/mL

Q: What about the IC50 (PDE III) of the same compound?
A: 32 nM

Q: What does the source list for `Cc1ncc2n1-c1ccc(Cl)cc1C(c1ccccc1F)=NC2` [midazolam]?
A: bioavailablity ([9]; given orally): ~30%; bioavailablity ([9]; intranasal spray): 87%

Q: What does the source list for siltuximab: IL-6 antibody?
A: upper respiratory infections, share of patients [10]: > 20%; platelet count (ovarian cancer): significantly reduced; tumour growth (ovarian cancer): significantly reduced
